PubChem BioAssay AID1259407 (Chemical Carcinogenesis Research Information System (CCRIS), 2018)
Active and inactive are the calls of the source. No rule for the calls is given here.

System: CCRIS mutagenicity, Ames/micronucleus/aberration tests
Test: CCRIS mutagenicity studies
Conditions: Test System: AMES SALMONELLA TYPHIMURIUM, Method: STANDARD PLATE

Nc1snc2c(Cl)cc(Cl)cc12
mutagenic call (Strain/Indicator: TA98, Metabolic Activation: NONE): inactive; negative
mutagenic call (Strain/Indicator: TA98, Metabolic Activation: S-9): inactive; negative
mutagenic call (Strain/Indicator: TA100, Metabolic Activation: NONE): inactive; negative
mutagenic call (Strain/Indicator: TA100, Metabolic Activation: S-9): active; positive
mutagenic call (Strain/Indicator: TA1535, Metabolic Activation: NONE): inactive; negative
mutagenic call (Strain/Indicator: TA1535, Metabolic Activation: S-9): inactive; negative
mutagenic call (Strain/Indicator: TA1537, Metabolic Activation: NONE): inactive; negative
mutagenic call (Strain/Indicator: TA1537, Metabolic Activation: S-9): active; positive
